Source: PubChem BioAssay AID1963973 (Molecular Pharmacology Branch, DTP, NCI, 2024)

System: 883617-216-R-J1-PDC tumor spheroids, viability
Assay: Anticancer human tumor 883617-216-R-J1-PDC patient-derived bladder carcinoma cell line growth inhibition [PI3K]
Conditions: spheroids with HUVEC and MSC; for IC50: curve of first compound; for viability, T/C: stronger effect = lower value
How it was run: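 Multi-cell spheroids combine tumor cells with HUVEC and human MSCs, treated with targeted agents alone or with inavolisib, alpelisib, duvelisib or copanlisib. Concentrations fall in half-log steps from at or near clinical Cmax, or from 10 microM where Cmax is unknown; viability read-out.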
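Also: spheroids exposed to agents for 7 days before the viability read.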

Compound: CNC(=O)c1ccc(N2C(=S)N(c3ccc(C#N)c(C(F)(F)F)c3)C(=O)C2(C)C)cc1F + CC(Nc1ncnc2nc[nH]c12)c1cc2cccc(Cl)c2c(=O)n1-c1ccccc1
- IC50 (second compound 0.0316 µM): > 10000 nM
- IC50 (second compound 0.1 µM): > 10000 nM
- IC50 (second compound 0.316 µM): > 10000 nM
- IC50 (second compound 1 µM): > 10000 nM
- IC50 (second compound 3.16 µM): > 10000 nM
- IC50 (second compound 10 µM): 3250 nM
- viability, T/C (second compound 0.0316 µM, first compound 0.0316 µM): 91.8%
- viability, T/C (second compound 0.0316 µM, first compound 0.1 µM): 94.3%
- viability, T/C (second compound 0.0316 µM, first compound 0.316 µM): 92.8%
- viability, T/C (second compound 0.0316 µM, first compound 1 µM): 96.2%
- viability, T/C (second compound 0.0316 µM, first compound 3.16 µM): 83.9%
- viability, T/C (second compound 0.0316 µM, first compound 10 µM): 89%
- viability, T/C (second compound 0.1 µM, first compound 0.0316 µM): 89.4%
- viability, T/C (second compound 0.1 µM, first compound 0.1 µM): 93.2%
- viability, T/C (second compound 0.1 µM, first compound 0.316 µM): 90.2%
- viability, T/C (second compound 0.1 µM, first compound 1 µM): 103%
- viability, T/C (second compound 0.1 µM, first compound 3.16 µM): 89.8%
- viability, T/C (second compound 0.1 µM, first compound 10 µM): 67%
- viability, T/C (second compound 0.316 µM, first compound 0.0316 µM): 88.1%
- viability, T/C (second compound 0.316 µM, first compound 0.1 µM): 98.9%
- viability, T/C (second compound 0.316 µM, first compound 0.316 µM): 84.9%
- viability, T/C (second compound 0.316 µM, first compound 1 µM): 88.6%
- viability, T/C (second compound 0.316 µM, first compound 3.16 µM): 82.7%
- viability, T/C (second compound 0.316 µM, first compound 10 µM): 70.2%
- viability, T/C (second compound 1 µM, first compound 0.0316 µM): 84.5%
- viability, T/C (second compound 1 µM, first compound 0.1 µM): 90.8%
- viability, T/C (second compound 1 µM, first compound 0.316 µM): 83%
- viability, T/C (second compound 1 µM, first compound 1 µM): 89.8%
- viability, T/C (second compound 1 µM, first compound 3.16 µM): 73.3%
- viability, T/C (second compound 1 µM, first compound 10 µM): 79.7%
- viability, T/C (second compound 3.16 µM, first compound 0.0316 µM): 70.6%
- viability, T/C (second compound 3.16 µM, first compound 0.1 µM): 78.5%
- viability, T/C (second compound 3.16 µM, first compound 0.316 µM): 72.7%
- viability, T/C (second compound 3.16 µM, first compound 1 µM): 76.4%
- viability, T/C (second compound 3.16 µM, first compound 3.16 µM): 69.2%
- viability, T/C (second compound 3.16 µM, first compound 10 µM): 55.6%
- viability, T/C (second compound 10 µM, first compound 0.0316 µM): 50.8%
- viability, T/C (second compound 10 µM, first compound 0.1 µM): 53.1%
- viability, T/C (second compound 10 µM, first compound 0.316 µM): 50.5%
- viability, T/C (second compound 10 µM, first compound 1 µM): 47.4%
- viability, T/C (second compound 10 µM, first compound 3.16 µM): 50.6%
- viability, T/C (second compound 10 µM, first compound 10 µM): 38.9%

Compound: Cn1cnc2c(F)c(Nc3ccc(Br)cc3Cl)c(C(=O)NOCCO)cc21 + CC(Nc1ncnc2nc[nH]c12)c1cc2cccc(Cl)c2c(=O)n1-c1ccccc1
- IC50 (second compound 0.0316 µM): 43.1 nM
- IC50 (second compound 0.1 µM): 39.3 nM
- IC50 (second compound 0.316 µM): 32.7 nM
- IC50 (second compound 1 µM): 22.7 nM
- IC50 (second compound 3.16 µM): 9.6 nM
- IC50 (second compound 10 µM): < 9.49 nM
- viability, T/C (second compound 0.0316 µM, first compound 0.00949 µM): 64.3%
- viability, T/C (second compound 0.0316 µM, first compound 0.03 µM): 56.1%
- viability, T/C (second compound 0.0316 µM, first compound 0.0949 µM): 39.5%
- viability, T/C (second compound 0.0316 µM, first compound 0.3 µM): 33.4%
- viability, T/C (second compound 0.0316 µM, first compound 0.949 µM): 33.5%
- viability, T/C (second compound 0.0316 µM, first compound 3 µM): 19.9%
- viability, T/C (second compound 0.1 µM, first compound 0.00949 µM): 66.4%
- viability, T/C (second compound 0.1 µM, first compound 0.03 µM): 55%
- viability, T/C (second compound 0.1 µM, first compound 0.0949 µM): 35.6%
- viability, T/C (second compound 0.1 µM, first compound 0.3 µM): 28.8%
- viability, T/C (second compound 0.1 µM, first compound 0.949 µM): 30%
- viability, T/C (second compound 0.1 µM, first compound 3 µM): 19.7%
- viability, T/C (second compound 0.316 µM, first compound 0.00949 µM): 68.8%
- viability, T/C (second compound 0.316 µM, first compound 0.03 µM): 51%
- viability, T/C (second compound 0.316 µM, first compound 0.0949 µM): 37.8%
- viability, T/C (second compound 0.316 µM, first compound 0.3 µM): 28.4%
- viability, T/C (second compound 0.316 µM, first compound 0.949 µM): 23.9%
- viability, T/C (second compound 0.316 µM, first compound 3 µM): 19.6%
- viability, T/C (second compound 1 µM, first compound 0.00949 µM): 60%
- viability, T/C (second compound 1 µM, first compound 0.03 µM): 44.9%
- viability, T/C (second compound 1 µM, first compound 0.0949 µM): 39.4%
- viability, T/C (second compound 1 µM, first compound 0.3 µM): 28%
- viability, T/C (second compound 1 µM, first compound 0.949 µM): 22.4%
- viability, T/C (second compound 1 µM, first compound 3 µM): 19%
- viability, T/C (second compound 3.16 µM, first compound 0.00949 µM): 50.3%
- viability, T/C (second compound 3.16 µM, first compound 0.03 µM): 37%
- viability, T/C (second compound 3.16 µM, first compound 0.0949 µM): 23.2%
- viability, T/C (second compound 3.16 µM, first compound 0.3 µM): 20.6%
- viability, T/C (second compound 3.16 µM, first compound 0.949 µM): 19%
- viability, T/C (second compound 3.16 µM, first compound 3 µM): 11%
- viability, T/C (second compound 10 µM, first compound 0.00949 µM): 31.2%
- viability, T/C (second compound 10 µM, first compound 0.03 µM): 24.7%
- viability, T/C (second compound 10 µM, first compound 0.0949 µM): 17.8%
- viability, T/C (second compound 10 µM, first compound 0.3 µM): 13.3%
- viability, T/C (second compound 10 µM, first compound 0.949 µM): 12.4%
- viability, T/C (second compound 10 µM, first compound 3 µM): 8.11%
